Laboratory results from ChEMBL document CHEMBL1201862, “PubChem BioAssay data set” (2004).
The source made the active and inactive calls.

Tests used:
Protein skinhead-1 = biological target: T1, Protein skinhead-1 (Caenorhabditis elegans, UniProt P34707); format: functional
T1 sequence (P34707 whole entry): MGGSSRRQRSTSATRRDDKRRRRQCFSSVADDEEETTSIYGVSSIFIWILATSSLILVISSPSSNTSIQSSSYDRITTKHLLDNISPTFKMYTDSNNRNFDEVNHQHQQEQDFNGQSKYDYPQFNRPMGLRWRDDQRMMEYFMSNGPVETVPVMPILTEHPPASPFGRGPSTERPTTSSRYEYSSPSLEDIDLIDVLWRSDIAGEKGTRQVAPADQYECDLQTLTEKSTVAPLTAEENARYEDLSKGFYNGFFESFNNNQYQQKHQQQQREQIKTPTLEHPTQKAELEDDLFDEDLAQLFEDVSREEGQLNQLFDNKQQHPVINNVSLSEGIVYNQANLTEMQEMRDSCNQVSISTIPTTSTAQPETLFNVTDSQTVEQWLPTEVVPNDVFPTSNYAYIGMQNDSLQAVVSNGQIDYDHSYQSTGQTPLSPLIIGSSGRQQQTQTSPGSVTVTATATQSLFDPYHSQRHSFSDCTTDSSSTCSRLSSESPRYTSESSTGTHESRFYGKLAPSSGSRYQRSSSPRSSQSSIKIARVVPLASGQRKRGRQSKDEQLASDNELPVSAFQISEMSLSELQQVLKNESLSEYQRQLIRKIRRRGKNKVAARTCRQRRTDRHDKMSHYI

[1] = biological target: T2, Replicative DNA helicase DnaB (Mycobacterium tuberculosis, UniProt P9WMR3); test: DnaB intein splicing inhibitors, dose response, biochemical, cell-free fluorescence (AID 449749); format: functional
T2 sequence (P9WMR3 whole entry): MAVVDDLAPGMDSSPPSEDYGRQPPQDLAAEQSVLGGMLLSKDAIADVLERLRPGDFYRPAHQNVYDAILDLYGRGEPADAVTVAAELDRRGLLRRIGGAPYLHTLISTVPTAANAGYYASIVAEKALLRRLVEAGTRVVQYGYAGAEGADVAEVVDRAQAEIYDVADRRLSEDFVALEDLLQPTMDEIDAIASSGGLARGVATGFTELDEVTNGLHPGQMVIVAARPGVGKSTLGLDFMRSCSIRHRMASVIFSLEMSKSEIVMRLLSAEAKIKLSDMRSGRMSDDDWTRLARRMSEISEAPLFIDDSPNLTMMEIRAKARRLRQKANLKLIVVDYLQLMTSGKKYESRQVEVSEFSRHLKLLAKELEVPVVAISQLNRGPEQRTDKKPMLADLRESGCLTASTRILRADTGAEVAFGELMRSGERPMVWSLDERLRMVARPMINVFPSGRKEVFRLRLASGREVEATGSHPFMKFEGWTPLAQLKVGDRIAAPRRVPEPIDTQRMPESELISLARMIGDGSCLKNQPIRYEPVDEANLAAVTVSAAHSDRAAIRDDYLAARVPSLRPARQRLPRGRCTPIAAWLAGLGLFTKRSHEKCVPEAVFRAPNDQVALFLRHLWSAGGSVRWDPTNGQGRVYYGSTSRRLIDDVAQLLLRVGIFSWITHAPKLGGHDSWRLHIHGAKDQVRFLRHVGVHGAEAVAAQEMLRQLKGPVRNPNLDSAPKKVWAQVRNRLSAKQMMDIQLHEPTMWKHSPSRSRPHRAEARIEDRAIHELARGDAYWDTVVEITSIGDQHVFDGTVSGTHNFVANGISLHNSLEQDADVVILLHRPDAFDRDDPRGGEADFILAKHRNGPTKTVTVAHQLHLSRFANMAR

Protein RecA = biological target: T3, Protein RecA (Mycobacterium tuberculosis, UniProt P9WHJ3); test: Fluorescence Cell-Free Homogeneous Dose Retest to Identify Inhibitors of RecA-Intein Splicing Activity. [Related pubchem assays (depositor defined):AID2097, AID2223, AID489010, AID492950]; format: functional
T3 sequence (P9WHJ3 whole entry): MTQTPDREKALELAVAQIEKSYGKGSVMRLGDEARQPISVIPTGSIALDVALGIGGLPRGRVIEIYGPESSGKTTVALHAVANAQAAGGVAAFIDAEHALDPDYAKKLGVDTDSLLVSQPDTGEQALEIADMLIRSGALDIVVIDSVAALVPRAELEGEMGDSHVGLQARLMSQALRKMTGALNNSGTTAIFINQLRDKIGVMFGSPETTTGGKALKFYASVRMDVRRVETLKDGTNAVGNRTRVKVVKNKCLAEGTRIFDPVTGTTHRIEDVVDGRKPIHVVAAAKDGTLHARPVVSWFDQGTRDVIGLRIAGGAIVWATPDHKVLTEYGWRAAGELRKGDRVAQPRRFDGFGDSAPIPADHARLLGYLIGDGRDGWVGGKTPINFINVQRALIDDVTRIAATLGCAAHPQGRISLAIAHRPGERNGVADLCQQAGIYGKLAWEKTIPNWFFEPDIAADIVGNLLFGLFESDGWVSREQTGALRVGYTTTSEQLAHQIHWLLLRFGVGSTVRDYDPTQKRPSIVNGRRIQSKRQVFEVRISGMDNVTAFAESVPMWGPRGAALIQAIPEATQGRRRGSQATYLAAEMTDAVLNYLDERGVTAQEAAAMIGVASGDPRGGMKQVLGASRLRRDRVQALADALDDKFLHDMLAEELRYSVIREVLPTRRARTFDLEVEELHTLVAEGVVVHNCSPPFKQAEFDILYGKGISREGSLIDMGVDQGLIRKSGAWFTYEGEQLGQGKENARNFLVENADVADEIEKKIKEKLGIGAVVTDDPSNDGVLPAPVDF

[2] = biological target: Induced myeloid leukemia cell differentiation protein Mcl-1 (Homo sapiens, UniProt Q07820); format: functional
[3] = biological target: T4, Calpain-2 catalytic subunit (Sus scrofa, UniProt P43367); test: m-calpain protease blockers, concentration series – biochemical, fluorogenic peptide substrate, dose response (AID 1420); format: functional
T4 sequence (P43367 whole entry): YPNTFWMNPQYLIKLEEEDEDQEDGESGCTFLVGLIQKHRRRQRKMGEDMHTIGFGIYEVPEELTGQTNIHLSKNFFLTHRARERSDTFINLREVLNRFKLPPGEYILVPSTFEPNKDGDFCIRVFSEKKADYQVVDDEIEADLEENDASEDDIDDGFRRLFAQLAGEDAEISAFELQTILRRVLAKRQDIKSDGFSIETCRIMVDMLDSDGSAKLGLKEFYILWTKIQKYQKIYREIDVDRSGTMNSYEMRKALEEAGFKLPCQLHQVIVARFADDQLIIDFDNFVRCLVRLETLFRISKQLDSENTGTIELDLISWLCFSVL

[4] = biological target: T5, Heat shock factor protein 1 (Mus musculus, UniProt P38532); test: decrease of HSF1-responsive luciferase luminescence – cell-based, NIH3T3, dose retest, confirmation (AID 2382); format: functional;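 also: NIH3T3 fibroblasts with HSF1-driven luciferase reporter stressed by proteasome inhibitor MG132; luminescence from HSF1-driven luciferase expression after 8 hours of MG132 stress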
T5 sequence (P38532 whole entry): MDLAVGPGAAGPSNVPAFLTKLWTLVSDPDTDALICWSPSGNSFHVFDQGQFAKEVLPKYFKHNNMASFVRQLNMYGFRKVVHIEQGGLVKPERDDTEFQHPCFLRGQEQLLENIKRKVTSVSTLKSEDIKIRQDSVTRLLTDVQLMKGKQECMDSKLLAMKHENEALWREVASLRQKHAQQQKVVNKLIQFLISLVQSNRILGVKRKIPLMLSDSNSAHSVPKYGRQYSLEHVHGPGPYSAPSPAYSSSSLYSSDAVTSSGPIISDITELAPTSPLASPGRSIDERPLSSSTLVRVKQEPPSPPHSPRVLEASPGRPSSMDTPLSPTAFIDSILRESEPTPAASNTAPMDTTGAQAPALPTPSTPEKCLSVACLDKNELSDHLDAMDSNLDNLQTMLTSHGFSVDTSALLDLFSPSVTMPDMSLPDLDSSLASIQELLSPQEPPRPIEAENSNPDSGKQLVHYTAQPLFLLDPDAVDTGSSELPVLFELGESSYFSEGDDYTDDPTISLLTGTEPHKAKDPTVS

[5] = Trypanosoma cruzi growth suppression in host cells – NIH3T3 host cells, beta-gal luminescence, confirmation (AID 2044); format: functional, cell-based;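 also: intracellular parasites grown in NIH/3T3 mouse fibroblasts as host cells; luminescent beta-galactosidase reporter signal from transgenic T. cruzi replicating inside host cells; inhibitors lower the luminescence signal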
[6] = NIH3T3 cell viability loss – ATP luminescence, mouse fibroblasts, counter-screen, dose response (AID 2010); format: functional, cell-based;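 also: cells exposed to compound for about 90 hours before reading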
[7] = biological target: T6, Microphthalmia-associated transcription factor (Homo sapiens, UniProt O75030); test: reducers of TRPM1 reporter luminescence, concentration series – cell-based, SK-MEL-5, cherry-picked, set 3, MITF inhibitor project, dose response (AID 493073); format: functional;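 also: SK-MEL-5 melanoma cells with luciferase driven by the MITF target TRPM1 promoter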
T6 sequence (O75030 whole entry): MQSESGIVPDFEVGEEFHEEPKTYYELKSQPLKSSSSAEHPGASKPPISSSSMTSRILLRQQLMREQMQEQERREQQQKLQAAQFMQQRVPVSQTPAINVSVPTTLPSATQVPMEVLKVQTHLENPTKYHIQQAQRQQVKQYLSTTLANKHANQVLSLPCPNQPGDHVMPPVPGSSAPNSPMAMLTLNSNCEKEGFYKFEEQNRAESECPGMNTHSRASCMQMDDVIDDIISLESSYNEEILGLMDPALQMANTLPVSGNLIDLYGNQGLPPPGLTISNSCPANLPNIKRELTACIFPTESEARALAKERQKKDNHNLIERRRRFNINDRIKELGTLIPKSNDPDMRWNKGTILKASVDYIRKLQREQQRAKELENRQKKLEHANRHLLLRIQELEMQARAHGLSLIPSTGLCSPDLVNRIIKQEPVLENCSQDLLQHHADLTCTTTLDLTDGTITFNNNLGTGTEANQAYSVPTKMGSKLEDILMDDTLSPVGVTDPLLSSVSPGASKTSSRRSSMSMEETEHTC

[8] = biological target: T5, Heat shock factor protein 1; test: enhancement of HSF1-driven luciferase signal – cell-based, NIH3T3, luminescence, dose retest, confirmation (AID 435004); format: functional;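 also: stress induced by proteasome inhibitor MG132 added 30 min after compound; luciferase reporter driven by HSF1 response element in NIH3T3 cells; actives raise luminescence as potentiators of the MG132 stress response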
[9] = blockers of HIV-1 envelope-mediated cell-cell fusion – cherry-pick, dose response (AID 652057); format: functional, cell-based
[10] = HIV-1 AD8 envelope cell-cell fusion blockers – cherry-pick, dose response (AID 652062); format: functional, cell-based;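 also: luciferase signal from cell-cell fusion driven by HIV-1 clade B AD8 Env; potency is for inhibitors of fusion seen as a drop in luminescence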

Chain of Induced myeloid leukemia cell differentiation protein Mcl-1 (Q07820 whole entry): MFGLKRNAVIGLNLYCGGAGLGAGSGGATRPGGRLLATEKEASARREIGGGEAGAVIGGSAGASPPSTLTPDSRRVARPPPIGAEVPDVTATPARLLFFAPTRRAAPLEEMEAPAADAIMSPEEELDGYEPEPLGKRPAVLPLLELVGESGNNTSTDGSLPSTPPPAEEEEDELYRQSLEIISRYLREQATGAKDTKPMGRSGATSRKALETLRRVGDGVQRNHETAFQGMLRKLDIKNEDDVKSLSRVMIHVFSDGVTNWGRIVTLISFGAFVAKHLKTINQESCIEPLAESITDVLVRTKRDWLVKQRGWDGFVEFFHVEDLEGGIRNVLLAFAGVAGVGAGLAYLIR

CCOC(=O)c1c(N)sc2c1CCSC2
IC50 (Protein skinhead-1): > 100 µM (inactive)

O=C(Cc1ccccc1)c1c[nH]c(C(=O)C(Cl)(Cl)Cl)c1
AC50 [1]: 4.92 µM (active)
EC50 (Protein RecA): 4.99 µM (active)

COc1ccc(-c2csc(Nc3ccccc3)n2)cc1
IC50 [2]: 10.3 µM (not active)
IC50 (Protein skinhead-1): > 100 µM (inactive)

COc1ccc(NC(=O)Nc2ccc(N3CCOCC3)c3nonc23)c(OC)c1
IC50 (Protein skinhead-1): > 100 µM (inactive)

CS(=O)(=O)N(CC(=O)NCCc1ccccc1)c1cccc([N+](=O)[O-])c1
IC50 [3]: 5.74 µM (not active)

O=C(c1ccc2c(c1)OCO2)N1CCN(c2ccc(C(F)(F)F)cn2)CC1
IC50 [3]: < 0.4 µM (not active)

CCCNC(=O)COC(=O)c1[nH]c(C)c(C(=O)OCC)c1C
IC50 (Protein skinhead-1): > 100 µM (inactive)

Cc1ccc(NC2=NC(=O)/C(=C/C=C/c3ccco3)S2)cc1
IC50 [2]: 8.32 µM (active)

Cc1onc(-c2c(Cl)cccc2Cl)c1C(=O)n1nnc2ccccc21
AC50 [1]: 16.4 µM (active)
EC50 (Protein RecA): 26.5 µM (active)

CCC(C(=O)OCC(=O)Nc1ccccc1-c1ccccc1)c1ccccc1 (stereo unspecified)
IC50 [3]: 9.96 µM (not active)

COc1ccc(N2CCN(C(=O)CCC(=O)c3cc(C)sc3C)CC2)cc1
IC50 [3]: 30.3 µM (not active)

O=C(CN1C(=O)CCS(=O)(=O)c2ccccc21)NCc1ccccc1
IC50 (Protein skinhead-1): > 100 µM (inactive)

CC1=NN(c2ccccc2)C(=O)/C1=C\c1cc(C)n(-c2cccnc2)c1C
AC50 [1]: 44.8 µM (active)
EC50 (Protein RecA): 88.8 µM (active)

O=C(Nc1nc(-c2ccccc2)cs1)c1ccccc1F
IC50 (Protein skinhead-1): > 100 µM (inactive)

COCCNC(=O)NC(=O)CN1CCCc2ccccc21
IC50 [3]: < 0.4 µM (not active)

COc1cccc2c(C)c(C(=O)O)[nH]c12
EC50 [4]: 5.27 µM (active)
IC50 [2]: 2.81 µM (active)

C#Cc1cccc(-n2nnc(C(=O)OC)c2-c2ccccc2)c1
IC50 (Protein skinhead-1): > 100 µM (inactive)

COC(=O)CC1(c2cccc3ccccc23)C(=O)c2ccccc2C1=O
AC50 [1]: 5.91 µM (active)
EC50 (Protein RecA): 4.46 µM (active)

CC1=Nc2ccccc2N=C(NC(=O)CN2CCN(c3ccccc3)CC2)C1c1ccccc1 (stereo unspecified)
EC50 [5]: 2.06 µM (active)
IC50 [3]: > 50 µM (not active)
EC50 [6]: > 30 µM (not active)

C#CCCc1ccccc1/C=[N+](/C)[O-]
AC50 [7]: 9.4 µM (active)

Brc1ccc(OCc2cn3ccccc3n2)cc1
EC50 [8]: > 260 µM (inactive)
IC50 (Protein skinhead-1): 41.9 µM (active)

Cc1nn(Cc2ccccc2)c2c1C(c1ccc(Cl)cc1)C(C#N)=C(N)O2 (stereo unspecified)
AC50 [1]: 6.41 µM (active)
EC50 (Protein RecA): 3.58 µM (active)

O=C(Nc1ccc(Cl)c(Cl)c1)N1N=CCC1c1ccccc1 (stereo unspecified)
IC50 [3]: 8.45 µM (not active)

O=C1c2cccc3cc([N+](=O)[O-])cc(c23)C(=O)N1/N=C/c1ccc(O)cc1O
IC50 [2]: 1.44 µM (active)

O=C(CNc1ccc2ccccc2c1)N/N=C/C=C/c1cccc([N+](=O)[O-])c1
IC50 [2]: 6.79 µM (active)

O=C(C[C@H]1CC[C@H]2[C@@H](COC[C@H](O)CN2C(=O)Nc2ccc(Cl)c(Cl)c2)O1)NCc1ccncc1
AC50 [9]: 31.5 µM (active)
AC50 [10]: 26.5 µM (active)

CN(C)CCCNC(=O)[C@H]1[C@H](CO)[C@H]2Cn3c(ccc(C4=CCCC4)c3=O)[C@H]2N1CCC(F)(F)F
AC50 [10]: 1.09 µM (active)

CN1CCN(c2ccc([N+](=O)[O-])cc2/C=N/NC(=O)c2cccc([N+](=O)[O-])c2)CC1
IC50 [2]: 3.57 µM (active)

COc1cc(/C=N/NC(=O)c2ccc([N+](=O)[O-])cc2Cl)cc(Br)c1O
IC50 [2]: 15.2 µM (not active)

C(=C1c2ccccc2-c2ccccc21)c1ccncc1
IC50 (Protein skinhead-1): > 100 µM (inactive)
